Data: patent US20160237160A1, “ANTI-TWEAKR ANTIBODIES AND USES THEREOF” (BAYER PHARMA AKTIENGESELLSCHAFT, priority 2013, published 2016)

What was measured:
[1] = system: BXF1228 patient-derived bladder cancer model; assay: Xenograft anti-tumor efficacy; type: in vivo, mice; conditions: final tumor weight, TPP-2090 10 mg/kg twice weekly for 4 weeks
[2] = system: Ku-19-19 xenograft (bladder cancer); assay: Xenograft anti-tumor efficacy; type: in vivo, mice; conditions: final tumor weight, TPP-2090 10 mg/kg twice weekly for 4 weeks
Description: (§1) After tumor growth to a size of approximately 40 mm^2 mice were randomized into control and treatment groups with a respective group size of n=8-10. Mice were treated with various doses of anti-TWEAKR antibodies diluted in PBS by intravenous injection (i.v.) into the tail vein with a twice per week schedule (q4dx3: applications twice per week, three applications in total; q4dx8: applications twice per week, eight applications in total). Combination therapy partners such as Regorafenib (10 mg/kg daily, per os) and the PI3K-inhibitor 1 (10 mg/kg, BID, 2d on, 5d off (applications twice daily on two consecutive days, followed by five days without treatment), i.v.) were diluted in their respective formulations whereas the standard of care therapies Irinotecan (5 mg/kg, 4d on, 3d off (applications once daily on four consecutive days followed by three days without treatment) i.v.) and Paclitaxel (16 mg/kg, q7dx4 (applications once per week, four applications in total), i.v.) were diluted in 0.9% NaCl. Animals injected with PBS served as the control (vehicle) group. The applied volume of the compounds was 5 ml/kg body weight per mouse.
(§2) Tumor growth was monitored 2-3 times per week by caliper measurement (length×width in mm) as well as body weight (in g). […]

[3] = system: SCaBER xenograft (bladder cancer), NMRI nude mice; assay: Xenograft anti-tumor efficacy; type: in vivo; conditions: final tumor weight, TPP-2090 10 mg/kg twice weekly for 4 weeks
[4] = system: BXF1352 patient-derived bladder cancer model; assay: Xenograft anti-tumor efficacy; type: in vivo, mice; conditions: final tumor weight, TPP-2090 10 mg/kg twice weekly for 4 weeks
Description: as §1, §2

[5] = system: Co5896 patient-derived colorectal cancer model; assay: Xenograft anti-tumor efficacy; type: in vivo, mice; conditions: tumor weight, TPP-2090 10 mg/kg twice weekly for 4 weeks
Description: as §1
(§3) Tumor growth was monitored 2-3 times per week by caliper measurement (length×width in mm) as well as body weight (in g). At the end of study tumors were dissected, weighted and used for the calculation of tumor-to-control (T/C) ratios (mean tumor weight of treated animals divided by mean tumor weight of control/vehicle animals). […] 2×10^6 tumor cells in 100% Matrigel were s.c. inoculated in female nude mice. After 7d established tumors with a size of about 40 mm^2 were treated with 0.3 mg/kg, 1 mg/kg and 3 mg/kg of antibodies (i.v., q4dx3: applications twice per week, three applications in total).
(§4) Animal studies were conducted as described in example 8 for further human colorectal cancer tumor cell lines Colo205 and LoVo and for further human colorectal cancer patient-derived models Co7553, Co5896, Co5676, Co5841, CXF 1103 and CXF 533. […] The formulation of regorafenib is described in example 8.

[6] = system: LoVo xenograft (colorectal cancer); assay: Xenograft anti-tumor efficacy; type: in vivo, mice; conditions: tumor weight, TPP-2090 10 mg/kg twice weekly for 4 weeks
Description: as §1, §3, §4

[7] = system: Colo205 xenograft (colorectal cancer); assay: Xenograft anti-tumor efficacy; type: in vivo, mice; conditions: tumor weight, TPP-2090 10 mg/kg twice weekly for 4 weeks
Description: as §1, §3, §4

Lovo cells = assay: Inhibition of proliferation (Cell Titer Glo); type: cell-based, human; conditions: 72h, 100 μg/ml antibody or *100 ng/ml TWEAK
Description: (§5) Therefore cells were plated in 96well plates in 750 assay medium (growth media from Table 21, plus 100 ng/ml IFN gamma for 786-O cells) at the following cell numbers: WiDr cells 3000 cells/well, 786-O cells 2500 cells/well. 24 h later cells were incubated with anti-TWEAKR antibodies (see Table 26), recombinant human TWEAK or isotype control IgG (not shown) at the indicated concentrations (antibodies from 0.03-300 μg/ml, TWEAK 100 or 300 ng/ml). At the time of antibody addition cell viability was determined in sister plates (time point zero): therefore 750/well CTG solution (Promega Cell Titer Glo solution (catalog # G755B and G756B) was added to the cells, incubated for 10 minutes and luminescence was read on a Victor V (Perkin Elmer). 96 h after incubation with the agents, cell viability was determined in the assay plates by addition of 100 μl/well CTG solution, 10 min incubation and reading of luminescence. Proliferation in control wells was calculated by subtracting time zero values from the luminescence values in the untreated control wells. % of cell proliferation was calculated in the compound treated wells as compared to the untreated control wells.
(§6) To evaluate, whether this strong anti-proliferative activity can also be observed in a broader cell panel, in addition LOVO, NCI-H1975, SW-480 (all 3000 cells/well), HT-29 (4000 cells/well), A253 and SK-OV3 (both 2500 cells/well) cells were incubated with 100 μg/ml anti-TWEAKR antibodies or TWEAK ligand for the time periods as indicated in Table 27. All cells were seeded in the growth media indicated in Table 21 and for all cells except for WiDr cells 100 ng/ml IFNgamma was added to the assay medium when seeding the cells. The percentage of growth inhibition for treated cells as compared to proliferation in untreated control cells was measured and calculated as described above. As shown in Table 27 the antibodies of the current invention are more efficacious as compared to other known antibodies in inhibiting proliferation of various cancer cell lines at 100 μg/ml. In most experiments the antibodies of the current invention also show equal or stronger efficacy as compared to 100-300 ng/ml TWEAK ligand. Thus, the antibodies described in this invention are unique in their activity to induce apoptosis and proliferation inhibition in a broad panel of cancer cell lines.

NCI-H1975 cells = assay: Inhibition of proliferation (Cell Titer Glo); type: cell-based, human; conditions: 72h, 100 μg/ml antibody or *100 ng/ml TWEAK
Description: as §5, §6

A253 cells = assay: Inhibition of proliferation (Cell Titer Glo); type: cell-based, human; conditions: 72h, 100 μg/ml antibody or **300 ng/ml TWEAK
Description: as §5, §6

SK-OV3 cells = assay: Inhibition of proliferation (Cell Titer Glo); type: cell-based, human; conditions: 96h, 100 μg/ml antibody
Description: as §5, §6

786-O cells [8] = assay: Inhibition of proliferation (Cell Titer Glo); type: cell-based, human; conditions: 96h, 100 μg/ml antibody or *100 ng/ml TWEAK
Description: as §5, §6

HT-29 cells [9] = assay: Inhibition of proliferation (Cell Titer Glo); type: cell-based, human; conditions: 24h, 100 μg/ml antibody or **300 ng/ml TWEAK
Description: as §5, §6

SW480 cells = assay: Inhibition of proliferation (Cell Titer Glo); type: cell-based, human; conditions: 72h, 100 μg/ml antibody or *100 ng/ml TWEAK
Description: as §5, §6

WiDr cells [10] = assay: Inhibition of proliferation (Cell Titer Glo); type: cell-based, human; conditions: 96h, 100 μg/ml antibody, no IFN gamma
Description: All cells were seeded in the growth media indicated in Table 21 and for all cells except for WiDr cells 100 ng/ml IFNgamma was added to the assay medium when seeding the cells. […]

A375 cells [11] = assay: IL-8 secretion ELISA; type: cell-based, human; conditions: 100 μg/ml, 24 h
Description: Therefore A375 cells were plated at 2500 cells/well in 96well plates in growth medium DMEM (Biochrom;# FG 0435, with stable Glutamin), 10% FCS. 24 h later cells were incubated with anti-TWEAKR antibodies, recombinant human TWEAK at various concentrations as indicated or corresponding isotype control IgG. 24 h after start of the incubation with the antibodies, cell supernatant or dilutions thereof were added to the Capture Elisa Plate of the human CXCL8/IL-8 ELISA Kit (R&D Systems DY208) and incubated over night at 4° C. by shaking 300 rpm. On the next day, samples were analyzed by using the human CXCL8/IL-8-ELISA Kit (R&D Systems DY208) according to the manufacturer's instructions. Optical density was measured at 450 nm (Tecan Spectra, Rainbow) together with background correction. To calculate absolute levels of IL-8 a standard curve using recombinant human IL-8 protein was applied according to the manufacturer's recommendations (R&D Systems).

NCI-H322 cells = assay: FACS binding to cell surface; parameters: species or system human; conditions: 10 μg/ml
Description: (§7) To determine the binding characteristics of the anti-TWEAKR antibodies on mouse and human cancer cell lines, binding was tested by flow cytometry to a panel of cell lines. Adherent cells were washed twice with PBS without Ca and Mg (Biochrom #L1825: aqueous solution containing 8000 mg/l NaCl, 200 mg/l KCl, 1150 mg/l Na2HPO4, and 200 mg/l KH2PO4) and detached by enzyme-free PBS based cell dissociation buffer (Invitrogen). Cells were suspended at approximately 10^5 cells/well in FACS buffer (PBS without Ca/Mg, containing 3% FCS, Biochrom). Cells were centrifuged (250 g, 5 min, 4° C.) and supernatant discarded. Cells were resuspended in dilutions of the antibodies of interest (10 μg/ml in 80 μl if not indicated otherwise) in FACS buffer, and incubated on ice for 1 h. In the following cells were washed once with 1000 cold FACS buffer and 80 μl secondary antibody diluted at 1:150 (PE goat anti-human IgG, Dianova #109-115-098, or PE Goat Anti-Mouse IgG, Jackson Immuno Research #115-115-164) was added. After incubation for 1 h on ice cells were again washed with cold FACS buffer, resuspended in 1000 FACS buffer and analyzed by flow cytometry using a FACS-Array (BD Biosciences). Results are calculated as Geo Mean of fluorescence detected by the antibody of interest subtracted by background fluorescence as measured by detection with the secondary antibody alone. Values are scored according to the following system: Geo Mean−Geo Mean of secondary antibody alone >10: +, >100: ++, >1000: +++, 10000: ++++, close to category border in ( ).

WiDr cells [12] = assay: FACS binding to cell surface; parameters: species or system human; conditions: 10 μg/ml
Description: as §7

786-O cells [13] = assay: FACS binding to cell surface; parameters: species or system human; conditions: 10 μg/ml
Description: as §7

HT-29 cells [14] = assay: FACS binding to cell surface; parameters: species or system human; conditions: HT29; 10 μg/ml
Description: as §7

A375 cells [15] = assay: FACS binding to cell surface; parameters: species or system human; conditions: 10 μg/ml
Description: as §7

SK-OV-3 cells = assay: FACS binding to cell surface; parameters: species or system human; conditions: SKOV-3; 10 μg/ml
Description: as §7

[16] = biological target: T1, TWEAKR protein (TPP-2305) (Homo sapiens, UniProt Q9NP84); assay: Biacore monovalent KD with TWEAKR protein; type: binding
T1 construct: TPP-2305; hTNFRSF12Aaa28-80; Human; 30R-AT080; 168; purchased Fitzgerald Inc 30R-AT080
Description: Binding affinities of anti-TWEAKR antibodies were determined by surface plasmon resonance analysis on a Biacore T100 instrument (GE Healthcare Biacore, Inc.). Antibodies were immobilized onto a CM5 sensor chip through an indirect capturing reagent, anti-human IgG(Fc). Reagents from the “Human Antibody Capture Kit” (BR-1008-39, GE Healthcare Biacore, Inc.) were used as described by the manufacturer. Anti-TWEAKR antibodies were injected at a concentration of 10 μg/ml at 10 μl/min for 10 sec.
Sensorgrams were generated after in-line reference cell correction followed by buffer sample subtraction. The dissociation equilibrium constant (KD) was calculated based on the ratio of association (kon) and dissociation rated (koff) constants, obtained by fitting sensorgrams with a first order 1:1 binding model.

TWEAKR = TWEAKR (Homo sapiens, UniProt Q9NP84); conditions: published data; read-out: KD / binding affinity to TWEAKR (published); cited from earlier work

Nc1ccn([C@@H]2O[C@H](CO)[C@@H](O)C2(F)F)c(=O)n1 [Gemcitabine, gemcitabine, reference compound]
T/C [1]: 0.93 | T/C [2]: 0.07 | T/C [3]: 0.85

N.N.[Cl][Pt][Cl] [Oxaliplatin/Cisplatin, cisplatin, reference compound]
T/C [1]: 0.84 | T/C [4]: 0.85 | T/C [3]: 1.22

CNC(=O)c1cc(Oc2ccc(NC(=O)Nc3ccc(Cl)c(C(F)(F)F)c3)c(F)c2)ccn1 [Regorafenib]
Final T/C [5]: 0.67 | Final T/C [6]: 0.63 | Final T/C [7]: 0.42

PDL-192(TPP-1104): reference agonistic anti-TWEAKR antibody, human IgG1, variable domains from WO2009/020933; SEQ ID NO 127/128 [reference compound]
% Inhibition of proliferation (Lovo cells): 49% | % Inhibition of proliferation (NCI-H1975 cells): 46% | % Inhibition of proliferation (A253 cells): 87% | % Inhibition of proliferation (SK-OV3 cells): 44% | % Inhibition of proliferation (786-O cells [8]): 41% | % Inhibition of proliferation (HT-29 cells [9]): 62% | % Inhibition of proliferation (SW480 cells): 27% | % Inhibition of proliferation (WiDr cells [10]): 12% | IL-8 release, % of the activation as compared to 300 ng/ml TWEAK ligand (A375 cells [11]): 66% | GeoMean of Fluorescence minus GeoMean with the secondary antibody only (NCI-H322 cells): 330 | GeoMean of Fluorescence minus GeoMean with the secondary antibody only (WiDr cells [12]): 3563 | GeoMean of Fluorescence minus GeoMean with the secondary antibody only (786-O cells [13]): 25283 | GeoMean of Fluorescence minus GeoMean with the secondary antibody only (HT-29 cells [14]): 2127 | GeoMean of Fluorescence minus GeoMean with the secondary antibody only (A375 cells [15]): 865 | GeoMean of Fluorescence minus GeoMean with the secondary antibody only (SK-OV-3 cells): 4053 | ka ([16]; first order 1:1 binding model): 1e+07 M⁻¹ s⁻¹ | kd ([16]; first order 1:1 binding model): 0.038 s⁻¹ | Kd ([16]; monovalent KD): 3.7 nM | Kd (TWEAKR): 5.5 nM
